# Values of other authors in US20130053277A1 (priority 2010, published 2013).
# Biological target: influenza A virus M2 ion channel, S31N mutant (Influenza A virus, UniProt P0DOF5, S31N)
# Settings: cited from earlier work
smiles,measurement,value
"NC12CC3CC(CC(C3)C1)C2 [amantadine, Amantadine]",isochronic apparent inhibitory binding constant,200 JLM
